According to ChEMBL document CHEMBL3046637, “Synthesis of new series of pyrazolo[4,3-d]pyrimidin-7-ones and pyrido[2,3-d]pyrimidin-4-ones for their bacterial and cyclin-dependent kinases (CDKs) inhibitory activities” (Med Chem Res, 2011):
≈ marks a conversion by molar mass, not a printed value.

Experiments:
[1] = biological target: T1, Cyclin-dependent kinase 1/cyclin B1 (Homo sapiens, UniProt P06493); test: Inhibition of CDK1/cyclin B (unknown origin); assay type: protein-complex assay
[2] = system: Candida albicans; test: Antimicrobial activity against Candida albicans ATCC 10231 by agar cup diffusion technique; assay type: functional
[3] = biological target: T1, Cyclin-dependent kinase 1/cyclin B1; test: Inhibition of CDK1/cyclin B (unknown origin) using histone H1 as substrate and [gamma-33P]-ATP after 10 min; assay type: protein-complex assay
[4] = system: Staphylococcus aureus; test: Antimicrobial activity against Staphylococcus aureus ATCC 6538 by agar cup diffusion technique; assay type: functional
[5] = biological target: Dual specificity tyrosine-phosphorylation-regulated kinase 1A (Homo sapiens, UniProt Q13627); test: Inhibition of DYRK1A (unknown origin) using [gamma-33P]-ATP after 10 min
[6] = biological target: Cyclin-dependent kinase 5/CDK5 activator 1 (Homo sapiens, UniProt Q00535); test: Inhibition of CDK5/p25 (unknown origin) using histone H1 as substrate and [gamma-33P]-ATP after 10 min; assay type: protein-complex assay
Chain of Cyclin-dependent kinase 5/CDK5 activator 1 (Q00535 whole entry): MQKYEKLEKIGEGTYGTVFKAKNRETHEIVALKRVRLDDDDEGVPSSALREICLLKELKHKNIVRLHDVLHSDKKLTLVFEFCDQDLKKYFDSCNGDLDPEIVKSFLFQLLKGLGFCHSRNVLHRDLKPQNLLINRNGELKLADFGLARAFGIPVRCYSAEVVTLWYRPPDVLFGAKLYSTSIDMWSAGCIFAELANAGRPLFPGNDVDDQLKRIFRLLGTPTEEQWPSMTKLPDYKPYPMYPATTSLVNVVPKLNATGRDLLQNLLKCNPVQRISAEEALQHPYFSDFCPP
Chain of Cyclin-dependent kinase 5/CDK5 activator 1 (Q15078 whole entry, further chain): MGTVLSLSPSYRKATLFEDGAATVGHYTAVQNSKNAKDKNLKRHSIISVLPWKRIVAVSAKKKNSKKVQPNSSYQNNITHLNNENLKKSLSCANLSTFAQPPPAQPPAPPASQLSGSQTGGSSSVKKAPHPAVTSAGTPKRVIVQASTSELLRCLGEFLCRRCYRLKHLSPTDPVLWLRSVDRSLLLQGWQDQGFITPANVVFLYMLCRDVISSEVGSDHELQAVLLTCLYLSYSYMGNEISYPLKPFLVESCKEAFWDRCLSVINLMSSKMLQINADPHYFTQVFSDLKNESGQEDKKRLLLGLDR

[7] = system: Staphylococcus aureus; test: Antimicrobial activity against Staphylococcus aureus ATCC 6538 by two-fold serial dilution technique; assay type: functional
[8] = biological target: Glycogen synthase kinase-3 beta (Homo sapiens, UniProt P49841); test: Inhibition of GSK3beta (unknown origin) using GS-l peptide as substrate and [gamma-33P]-ATP after 10 min
Chain of Glycogen synthase kinase-3 beta (P49841 whole entry): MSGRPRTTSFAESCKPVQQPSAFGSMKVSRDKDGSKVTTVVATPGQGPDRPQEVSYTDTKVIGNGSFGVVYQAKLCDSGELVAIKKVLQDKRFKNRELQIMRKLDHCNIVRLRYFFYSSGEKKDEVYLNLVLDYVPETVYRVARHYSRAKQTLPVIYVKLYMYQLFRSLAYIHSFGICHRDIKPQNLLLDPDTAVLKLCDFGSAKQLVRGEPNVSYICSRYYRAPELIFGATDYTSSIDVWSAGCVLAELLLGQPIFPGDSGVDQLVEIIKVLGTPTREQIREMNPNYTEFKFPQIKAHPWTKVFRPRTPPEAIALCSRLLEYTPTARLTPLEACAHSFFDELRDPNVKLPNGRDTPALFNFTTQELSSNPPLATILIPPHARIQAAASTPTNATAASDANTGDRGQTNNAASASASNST

[9] = biological target: Glycogen synthase kinase-3 alpha (Homo sapiens, UniProt P49840); test: Inhibition of GSK3alpha (unknown origin) using GS-l peptide as substrate and [gamma-33P]-ATP after 10 min
Chain of Glycogen synthase kinase-3 alpha (P49840 whole entry, the tested form may be a part): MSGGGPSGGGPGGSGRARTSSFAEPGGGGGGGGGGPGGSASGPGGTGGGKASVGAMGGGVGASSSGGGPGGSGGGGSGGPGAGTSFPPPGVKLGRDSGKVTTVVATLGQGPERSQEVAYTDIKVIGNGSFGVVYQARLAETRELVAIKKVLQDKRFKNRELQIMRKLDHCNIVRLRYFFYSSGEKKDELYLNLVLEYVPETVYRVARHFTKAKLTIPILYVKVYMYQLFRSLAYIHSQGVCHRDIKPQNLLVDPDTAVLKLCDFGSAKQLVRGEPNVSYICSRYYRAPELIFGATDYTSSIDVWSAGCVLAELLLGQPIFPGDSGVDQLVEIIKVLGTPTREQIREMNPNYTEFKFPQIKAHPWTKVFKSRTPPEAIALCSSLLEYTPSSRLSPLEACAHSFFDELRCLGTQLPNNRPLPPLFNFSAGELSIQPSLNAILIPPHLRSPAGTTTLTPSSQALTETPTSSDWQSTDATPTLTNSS

[10] = system: Escherichia coli; test: Antimicrobial activity against Escherichia coli NCTC 10418 by agar cup diffusion technique; assay type: functional
[11] = system: Pseudomonas aeruginosa; test: Antimicrobial activity against Pseudomonas aeruginosa ATCC 9027 by agar cup diffusion technique; assay type: functional
[12] = system: Candida albicans; test: Antimicrobial activity against Candida albicans ATCC 10231 by two-fold serial dilution technique; assay type: functional
[13] = system: Pseudomonas aeruginosa; test: Antimicrobial activity against Pseudomonas aeruginosa ATCC 9027 by two-fold serial dilution technique; assay type: functional
[14] = system: Escherichia coli; test: Antimicrobial activity against Escherichia coli NCTC 10418 by two-fold serial dilution technique; assay type: functional

T1 sequence (P06493 whole entry, the tested form may be a part): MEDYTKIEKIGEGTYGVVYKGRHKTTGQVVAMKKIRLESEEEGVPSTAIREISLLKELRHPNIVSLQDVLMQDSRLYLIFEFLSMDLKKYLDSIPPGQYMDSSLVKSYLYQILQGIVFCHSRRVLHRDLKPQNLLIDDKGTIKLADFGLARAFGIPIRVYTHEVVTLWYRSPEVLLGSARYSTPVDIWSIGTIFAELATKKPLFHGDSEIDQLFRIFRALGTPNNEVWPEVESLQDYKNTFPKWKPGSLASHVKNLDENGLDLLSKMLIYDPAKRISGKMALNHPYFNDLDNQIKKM
T1 sequence (P14635 whole entry, further chain, the tested form may be a part): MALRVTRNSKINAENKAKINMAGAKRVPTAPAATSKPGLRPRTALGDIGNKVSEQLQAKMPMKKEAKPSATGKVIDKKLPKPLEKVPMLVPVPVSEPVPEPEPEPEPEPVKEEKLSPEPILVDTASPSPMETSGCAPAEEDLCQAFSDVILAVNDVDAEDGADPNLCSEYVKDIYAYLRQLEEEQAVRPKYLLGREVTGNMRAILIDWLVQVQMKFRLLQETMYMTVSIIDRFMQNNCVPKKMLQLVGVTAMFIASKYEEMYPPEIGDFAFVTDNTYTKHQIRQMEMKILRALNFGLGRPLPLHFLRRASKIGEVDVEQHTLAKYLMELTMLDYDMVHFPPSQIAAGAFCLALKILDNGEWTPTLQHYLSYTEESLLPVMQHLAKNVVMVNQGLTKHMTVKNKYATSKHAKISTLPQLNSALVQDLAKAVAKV

Row | IC50 [1] [nM] | IC50 [3] [µM] | IC50 [5] [µM] | IC50 [6] [µM] | MIC [7] [µg/mL] | IC50 [8] [µM] | IC50 [9] [µM] | MIC [12] [µg/mL] | MIC [13] [µg/mL] | SMILES | diameter of the inhibition zone (DIZ) [2] [mm] | diameter of the inhibition zone (DIZ) [4] [mm] | MBC [7] [µg/mL] | diameter of the inhibition zone (DIZ) [10] [mm] | diameter of the inhibition zone (DIZ) [11] [mm] | MBC [12] [µg/mL] | MBC [13] [µg/mL] | MBC [14] [µg/mL]
1 | – | > 10 | > 10 | > 10 | 250 (≈ 674 µM) | > 10 | > 10 | – | – | O=C1NN=C(c2ccc(Br)cc2)/C(=N/Nc2ccccc2)C1=O | 16.5 | 20 | 250 (≈ 674 µM) | 16 | 17.5 | – | – | –
2 | – | > 10 | > 10 | > 10 | – | > 10 | > 10 | – | – | O=c1[nH]cnc2c(-c3ccccc3)n[nH]c12 | 17 | 11 | – | 16 | 17.5 | – | – | –
3 | – | > 10 | > 10 | > 10 | 250 (≈ 739 µM) | > 10 | > 10 | – | – | CCOC(=O)c1[nH]nc(-c2ccc(F)cc2)c1/N=N/c1ccccc1 | 16 | 20 | 250 (≈ 739 µM) | 16 | 17 | – | – | –
4 | – | > 10 | > 10 | > 10 | 125 (≈ 352 µM) | > 10 | > 10 | – | – | CCOC(=O)c1[nH]nc(-c2ccc(Cl)cc2)c1/N=N/c1ccccc1 | 16 | 21 | 250 (≈ 705 µM) | 16.5 | 16 | – | – | –
5 | – | > 10 | > 10 | > 10 | – | > 10 | > 10 | 62.5 (≈ 127 µM) | – | CCOc1ccc(S(=O)(=O)N2CCN(c3ccccc3)CC2)cc1-c1nc2ncccc2c(=O)[nH]1 | 25 | 12 | – | 16.5 | 15.5 | 250 (≈ 509 µM) | – | –
6 | – | > 10 | > 10 | > 10 | – | > 10 | > 10 | – | – | CCOC(=O)C(=O)/C(=N\Nc1ccccc1)C(=O)c1ccccc1 | 16 | – | – | 16 | 16 | – | – | –
7 | – | > 10 | > 10 | > 10 | 62.5 (≈ 214 µM) | > 10 | > 10 | – | 125 (≈ 428 µM) | O=C1NN=C(c2ccccc2)/C(=N/Nc2ccccc2)C1=O | 17.5 | 30 | 62.5 (≈ 214 µM) | 17 | 24 | – | 125 (≈ 428 µM) | –
8 | – | > 10 | > 10 | > 10 | – | > 10 | > 10 | – | – | CCOC(=O)C(=O)/C(=N\Nc1ccccc1)C(=O)c1ccc(Cl)cc1 | 16 | – | – | 16 | 17 | – | – | –
9 | – | > 10 | > 10 | > 10 | – | > 10 | > 10 | – | – | CCOc1ccc(S(=O)(=O)N2CCOCC2)cc1-c1nc2ncccc2c(=O)[nH]1 | 17 | 10 | – | 17 | 15 | – | – | –

Second part, the compound before the results:

Row | SMILES | IC50 [1] [nM] | IC50 [3] [µM] | IC50 [5] [µM] | IC50 [6] [µM] | MIC [7] [µg/mL] | IC50 [8] [µM] | IC50 [9] [µM] | MIC [12] [µg/mL] | MIC [13] [µg/mL] | diameter of the inhibition zone (DIZ) [2] [mm] | diameter of the inhibition zone (DIZ) [4] [mm] | MBC [7] [µg/mL] | diameter of the inhibition zone (DIZ) [10] [mm] | diameter of the inhibition zone (DIZ) [11] [mm] | MBC [12] [µg/mL] | MBC [13] [µg/mL] | MBC [14] [µg/mL]
10 | COc1ccc(CNc2ncnc3c(C(C)C)n[nH]c23)cc1O | 1100 | – | – | – | – | – | – | – | – | – | – | – | – | – | – | – | –
11 | CCOC(=O)c1[nH]nc(-c2ccc(Br)cc2)c1N | – | > 10 | > 10 | > 10 | – | > 10 | > 10 | – | – | 16 | 14 | – | 15.5 | 17 | – | – | –
12 | O=c1[nH]cnc2c(-c3ccc(Br)cc3)n[nH]c12 | – | > 10 | > 10 | > 10 | – | > 10 | > 10 | 250 (≈ 859 µM) | – | 28 | – | – | 15.5 | 17.5 | 250 (≈ 859 µM) | – | –
13 | Clc1ccccc1C(c1ccccc1)(c1ccccc1)n1ccnc1 [CLOTRIMAZOLE] | – | – | – | – | – | – | – | 7.81 (≈ 22.6 µM) | – | 28 | – | – | – | – | 15.6 (≈ 45.3 µM) | – | –
14 | CCOC(=O)c1[nH]nc(-c2ccc(Cl)cc2)c1N | – | > 10 | > 10 | > 10 | – | > 10 | > 10 | – | 125 (≈ 470 µM) | 17 | 10 | – | 17 | 23 | – | > 500 | –
15 | CC1(C)S[C@@H]2[C@H](NC(=O)[C@H](N)c3ccccc3)C(=O)N2[C@H]1C(=O)O [AMPICILLIN] | – | – | – | – | 3.9 (≈ 11.2 µM) | – | – | – | 250 (≈ 715 µM) | – | 40 | 15.6 (≈ 44.7 µM) | 26 | 18 | – | 500 (≈ 1430 µM) | 31.2 (≈ 89.4 µM)
